Experimental data taken from the CheMixHub viscosity set.

Test: xn = mol fraction of the nth substance listed

C=CCN(CC=C)C(=O)C(Cl)Cl + CCO
viscosity [mPa·s], 101 kPa
Settings | x1 = 0.004764 | x1 = 0.01126 | x1 = 0.01785 | x1 = 0.02455 | x1 = 0.03127 | x1 = 0.03725 | x1 = 0.04407
293.15 K | 1.208 | 1.238 | 1.258 | 1.284 | 1.314 | 1.334 | 1.372
298.15 K | 1.108 | 1.134 | 1.162 | 1.178 | 1.201 | 1.215 | 1.245
303.15 K | 1.008 | 1.025 | 1.043 | 1.062 | 1.08 | 1.1 | 1.116
308.15 K | 0.9132 | 0.9322 | 0.9453 | 0.9641 | 0.9854 | 0.9997 | 1.02
313.15 K | 0.832 | 0.8475 | 0.8596 | 0.8743 | 0.8941 | 0.9139 | 0.9264

CCCOCC(C)O (configuration not stated) + CCO
viscosity [mPa·s], 101.33 kPa
Settings | 298.15 K | 308.15 K | 318.15 K
x1 = 0.05 | 1.18 | 0.974 | 0.813
x1 = 0.1 | 1.272 | 1.041 | 0.863
x1 = 0.15 | 1.363 | 1.108 | 0.911
x1 = 0.2 | 1.448 | 1.171 | 0.96
x1 = 0.25 | 1.534 | 1.231 | 1.005
x1 = 0.3 | 1.612 | 1.288 | 1.046
x1 = 0.35 | 1.716 | 1.362 | 1.105
x1 = 0.4 | 1.79 | 1.417 | 1.142
x1 = 0.45 | 1.862 | 1.467 | 1.177
x1 = 0.5 | 1.928 | 1.513 | 1.21
x1 = 0.55 | 1.998 | 1.557 | 1.241
x1 = 0.6 | 2.056 | 1.602 | 1.274
x1 = 0.65 | 2.113 | 1.651 | 1.297
x1 = 0.7 | 2.168 | 1.674 | 1.322
x1 = 0.75 | 2.219 | 1.706 | 1.345
x1 = 0.8 | 2.264 | 1.734 | 1.368
x1 = 0.8498 | 2.307 | 1.766 | 1.389
x1 = 0.9 | 2.354 | 1.79 | 1.406
x1 = 0.95 | 2.369 | 1.815 | 1.414

CN(C)P(=O)(N(C)C)N(C)C + CCO
303.15 K, 101.3 kPa
Settings | viscosity [mPa·s]
x1 = 0.1007 | 1.255
x1 = 0.2043 | 1.461
x1 = 0.2959 | 1.627
x1 = 0.3983 | 1.807
x1 = 0.5079 | 2.005
x1 = 0.5998 | 2.18
x1 = 0.698 | 2.362
x1 = 0.8012 | 2.557
x1 = 0.9052 | 2.75

Cc1cccc(C)n1 + CCO
298.15 K, 101 kPa
Settings | viscosity [mPa·s]
x1 = 0.0454 | 1.15
x1 = 0.09639 | 1.164
x1 = 0.2211 | 1.202
x1 = 0.3891 | 1.133
x1 = 0.6241 | 1.02
x1 = 0.8038 | 0.9686

CC(=O)c1ccccc1 + CCOC(=O)OCC
viscosity [mPa·s], 101 kPa
Settings | x2 = 0.0972 | x2 = 0.1515 | x2 = 0.2512 | x2 = 0.3615 | x2 = 0.4921 | x2 = 0.5705 | x2 = 0.6654 | x2 = 0.7584 | x2 = 0.8932 | x2 = 0.9425
303.15 K | 1.413 | 1.358 | – | 1.155 | – | 0.977 | 0.906 | 0.843 | 0.76 | 0.732
308.15 K | 1.286 | 1.237 | 1.15 | 1.059 | 0.958 | 0.902 | 0.839 | 0.783 | 0.708 | 0.683
313.15 K | 1.205 | 1.159 | 1.079 | 0.995 | 0.901 | 0.85 | 0.791 | 0.738 | 0.669 | 0.646

CC(=O)c1ccccc1 + CCOC(C)=O
viscosity [mPa·s], 100 kPa
Settings | x1 = 0.0775 | x1 = 0.1574 | x1 = 0.2396 | x1 = 0.3244 | x1 = 0.4119 | x1 = 0.5021 | x1 = 0.5953 | x1 = 0.6915 | x1 = 0.7909 | x1 = 0.8937
303.15 K | 0.4772 | 0.5756 | 0.6734 | 0.7711 | 0.8688 | 0.9666 | 1.064 | 1.162 | 1.26 | 1.358
313.15 K | 0.424 | 0.5047 | 0.5856 | 0.6665 | 0.7474 | 0.8284 | 0.9093 | 0.9902 | 1.071 | 1.152
323.15 K | 0.374 | 0.4427 | 0.5114 | 0.5801 | 0.6488 | 0.7175 | 0.7862 | 0.8549 | 0.9236 | 0.9923

O=S(Cl)Cl + CCOC(C)=O
298.15 K, 101 kPa
Settings | viscosity [mPa·s]
x1 = 0.225 | 0.4911
x1 = 0.316 | 0.5174
x1 = 0.534 | 0.5759
x1 = 0.7 | 0.6117
x1 = 0.83 | 0.6177

O=S(Cl)Cl + CCOCC
298.15 K, 101 kPa
Settings | viscosity [mPa·s]
x1 = 0.334 | 0.3365
x1 = 0.845 | 0.548

ClC(Cl)C(Cl)(Cl)Cl + CCOc1ccccc1
298.15 K, 101 kPa
Settings | viscosity [mPa·s]
x2 = 0.0971 | 2.1
x2 = 0.2214 | 1.92
x2 = 0.4895 | 1.607
x2 = 0.6798 | 1.393
x2 = 0.903 | 1.206

C1COCO1 + CN(C)C=O
viscosity [mPa·s], 101 kPa
Settings | x2 = 0.1012 | x2 = 0.2021 | x2 = 0.3028 | x2 = 0.4032 | x2 = 0.5033 | x2 = 0.6032 | x2 = 0.7028 | x2 = 0.8021 | x2 = 0.9012
298.15 K | 0.567 | 0.568 | 0.578 | 0.594 | 0.614 | 0.642 | 0.676 | 0.715 | 0.759
308.15 K | 0.506 | 0.51 | 0.52 | 0.535 | 0.552 | 0.578 | 0.606 | 0.637 | 0.671
318.15 K | 0.467 | 0.477 | 0.488 | 0.5 | 0.515 | 0.534 | 0.555 | 0.576 | 0.597

Cc1cccc(C)n1 + CO
101 kPa
Settings | viscosity [mPa·s]
298.01 K, x1 = 0.1115 | 0.705
298.12 K, x1 = 0.2763 | 0.857
298.18 K, x1 = 0.4001 | 0.912
298.18 K, x1 = 0.5482 | 0.909
298.19 K, x1 = 0.8449 | 0.846
298.24 K, x1 = 0.2399 | 0.823
298.29 K, x1 = 0.7013 | 0.891
303.08 K, x1 = 0.1115 | 0.655
303.15 K, x1 = 0.8449 | 0.789
303.17 K, x1 = 0.2763 | 0.793
303.21 K, x1 = 0.2399 | 0.763
303.21 K, x1 = 0.4001 | 0.85
303.24 K, x1 = 0.7013 | 0.828
303.25 K, x1 = 0.5482 | 0.84
308.08 K, x1 = 0.1115 | 0.613
308.18 K, x1 = 0.8449 | 0.737
308.19 K, x1 = 0.2763 | 0.739
308.24 K, x1 = 0.5482 | 0.782
308.25 K, x1 = 0.2399 | 0.71
308.26 K, x1 = 0.7013 | 0.774
312.95 K, x1 = 0.2399 | 0.662
313.15 K, x1 = 0.1115 | 0.572
313.22 K, x1 = 0.8449 | 0.691
313.25 K, x1 = 0.2763 | 0.688
313.27 K, x1 = 0.4001 | 0.729
313.33 K, x1 = 0.7013 | 0.725
318.22 K, x1 = 0.1115 | 0.535
318.28 K, x1 = 0.8449 | 0.65
318.32 K, x1 = 0.2399 | 0.617
318.33 K, x1 = 0.2763 | 0.643
318.33 K, x1 = 0.4001 | 0.682
318.35 K, x1 = 0.5482 | 0.688
318.38 K, x1 = 0.7013 | 0.68
